How the values were obtained:
[1] = literature; cited from earlier work
[2] = tested on: cold receptors; assay: Cooling effect of consumer product applied to skin (face, scalp, lips, forehead); assay type: in vivo, human
Method: Into two separate samples of the base lotion were added 2.0% by weight based on the total composition of N-ethyl-p-menthane-3-carboxamide and N,N-dimethyl-p-menthane-3-carboxamide, each into a different one of the two samples.
To the recipe was added 3.0%, based on the total composition of N-p-menth-3-oylglycine methyl ester. […]
Sodium lauryl ether sulphate, 10 g., was dispersed in 90 g. water in a high speed mill. To the dispersion was added 3.3% by weight of N-(2-hydroxy-n-propyl)-p-menthane-3-carboxamide. […]
The sodium stearate was dissolved by stirring in a warm mixture of the ethanol propylene glycol and water. To the solution was added the perfume and 3.0% of N-(2-hydroxy-n-propyl)-p-menthane-3-carboxamide and the mixture then allowed to solidify into a waxy cake. […]
This Example illustrates now the physiological cooling effect of the compounds of this invention varies according to the locality of application.
In the course of grinding there was added 3.0% of N-n-propyl-p-menthane-3-carboxamide. […]
To this liquid was added 1.0% of N-ethyl-p-menthane-3-carboxamide. A paper tissue was then soaked in the liquid.

[3] = tested on: cold receptors; assay: Threshold test: minimum quantity of compound on filter paper square on tongue giving a noticeable cooling effect, selected panel of 6 people; assay type: in vivo, human; conditions: panel of 6 people, cooling reported 50% of the time
Text: For example, a controlling factor in the onset of cooling effect, its intensity and longevity will be the rate of penetration of the compounds through the epidermis and this will vary in different locations on the human body.
It will also benoted that the described test procedure is done on a statistical basis. This is necessary since sensitivity to these compounds will vary not only from compound to compound and from one part of the body to another, but also from one individual to another. Tests of this nature are commonly used in the testing of the organoleptic properties, e.g. taste, smell etc. of organic and inorganic compounds, see Kirk-Othmer: Encyclopedia of Chemical Technology, 2nd. Ed.
The following test procedure is aimed at determining the minimum quantity of the test compound required to produce a noticeable cooling effect on a person of average sensitivity, this minimum quantity being termed the threshold for that particular compound. The tests are carried out on a selected panel of 6 people of median sensitivity to 1-menthol.
To select a test panel of average sensitivity the following procedure is used. Known quantities of 1-menthol in solution in petroleum ether (bp.40-60) are placed on 5 mm. squares of filter paper, whereafter the solvent is allowed to evaporate. A panel of observers is enrolled and asked to place one impregnated square at a time on the tongue and to report on the presence or absence of a cooling effect. […] Conveniently, one starts with squares containing 2.0 μg. 1-menthol, the amount on each successive square being half that of the preceding square, i.e. the second test square will contain 1.0 μg, the third 0.5 μg and so on. Each quantity is tested on the tongue at least 10 times. In this way, the thresholds to cold receptor stimulus by 1-menthol are determined for each individual of the panel, the threshold for each individual being that amount of 1-menthol for which, in a series of not less than 10 test applications, a cooling effect is reported 50% of the time.
To test the activity of compounds according to this invention, the above procedure is repeated using only the 6 selected panel members of average sensitivity to 1-menthol. The individual thresholds for each test compound on each of the 6 selected panel members are determined and averaged. Those compounds whose average threshold on the select test panel is 100 μg or less are regarded as having cooling activity in accordance with this invention.

[4] = tested on: cold receptors; assay: Cooling effect of consumer product in the mouth / on the tongue; assay type: in vivo, human
Method: To the compositions was added 0.1% of N-n-propyl-p-menthane-3-carboxamide.
Shortly before completion of the blending operation 0.5% by weight of N-(p-menth-3-oyl) morpholine was added to the blender. […]
N-(2-hydroxy-n-propyl)-p-menthane-3-carboxamide was added to a proprietary gin in an amount of 0.08%.
99.5% sucrose and 0.5% citric acid were carefully fused together in the presence of a trace of water. Just before casting the melt onto a chilled plate 0.13% of N,N-dimethyl-p-menthane-3-carboxamide were repidly stirred in. The melt was then cast.
Water was added to icing sugar at 50° C to form a stiff paste. 0.05% of N-ethyl-p-menthane-3-carboxamide was then stirred into a paste and the mixture allowed to set. […]
A proprietary ice cream mixture was mixed in accordance with the manufactures instructions. Shortly before freezing N-p-menth-3-oyl-β-aminopropionic acid n-propyl ester was added in an amount of 0.05%. […]

[5] = tested on: cold receptors; assay: Cooling effect in the stomach after swallowing tablet; assay type: in vivo, human; conditions: 0.05%
Text: Added to the mixture during grinding was 0.05% of N-ethyl-p-menthane- 3-carboxamide. After mixing the mixture was pressed into 0.5 g tablets.
Soluble aspirin (calcium acetylsalicylate) tablets were impregnated with 0.05% of N-ethyl-p-menthane-3-carboxamide by absorption in the tablet of a metered drop of an ethanolic solution of the carboxamide.

[6] = tested on: cold receptors; assay: Cooling effect of eye lotion when used to bathe the eyes; assay type: in vivo, human; conditions: Example 9, eye lotion, 0.003%, eyeball and eyelids
Method: To the formulation was added 0.003%, based on the total composition of N-(2-hydroxyethyl)-p-menthane carboxamide.

[7] = Example 2, after shave lotion, 2.0%, face

**Q.** For `CC(C)C1CCC(C)C(O)C1O` (centres unmarked) [2,3-p-menthane diol], which “cooling taste or refreshing effect” value [1] is on record?
**A.** sharp cooling taste

**Q.** With `CC1CCC(C(C)C)C(C(=O)N2CCOCC2)C1` (centres unmarked) [--CH2 CH2 OCH2 CH2 --, N-(p-menth-3-oyl)morpholine] as the compound, how does the “cooling effect on skin” value ([2]; Example 11, applied to the skin as an alcoholic solution) read?
**A.** relatively weak

**Q.** And the “Threshold (average minimum quantity to produce a noticeable cooling effect)” value (from here on “Threshold”) [3]?
**A.** 5.5 µg

**Q.** And the “cooling effect on mucous membranes of the mouth” value ([4]; Example 11, applied to the mucous membranes of the mouth)?
**A.** very pronounced

**Q.** What about the cooling effect ([4]; Example 11, toothpaste, 0.5%, mouth) of the same compound?
**A.** a strong cooling effect is noticed in the mouth

**Q.** With `CC1CCC(C(C)C)C(C(=O)N(CCO)CCO)C1` (centres unmarked) [--CH2 CH2 OH, --CH2 CH2 OH, N,N-bis(2-hydroxyethyl)-p-menthane-3-carboxamide] as the compound, how does the “Threshold” value [3] read?
**A.** 50 µg

**Q.** And the cooling effect ([4]; Example 18, chewing gum, 5.0%, mouth)?
**A.** marked cooling effect in the mouth

**Q.** Which cooling effect ([2]; Example 1, aerosol shaving soap, 1.0%, face) does the source give for `CC1CCC(C(C)C)C(C(=O)N(C)C)C1` (centres unmarked) [--CH3, --CH3, N,N-dimethyl-p-menthane-3-carboxamide] here?
**A.** a fresh cool sensation was distinctly noticeable on the face

**Q.** And the cooling effect [2, 7]?
**A.** a clearly noticeable cooling effect became apparent after a short interval of time

**Q.** And the “Threshold” value [3]?
**A.** 1.5 µg

**Q.** What about the cooling effect ([4]; Example 16, boiled sweet, 0.13%, mouth) of the same compound?
**A.** marked cooling effect on the mouth

**Q.** Which results are given for `CCNC(=O)C1CC(C)CCC1C(C)C` (centres unmarked) [H, --C2 H5, N-ethyl-p-menthane-3-carboxamide]?
**A.** cooling effect [2, 7]: a clearly noticeable cooling effect became apparent after a short interval of time; cooling effect ([2]; Example 24, cleansing tissue, 1.0% in liquid, skin): a fresh cool sensation developed on the skin after a short interval; Threshold (average minimum quantity to produce a noticeable cooling effect) [3]: 0.3 µg; cooling effect ([5]; Example 20, indigestion tablet): after a short interval of time a noticeable cooling effect in the stomach; cooling effect ([5]; Example 23, soluble aspirin tablet): a quite noticeable cooling effect developed in the stomach after a short interval; cooling effect ([4]; Example 12, toothpick, 0.01 mg, tongue): a distinct cooling effect is noticeable after a short period of time; cooling effect ([4]; Example 17, mint sweet, 0.05%, mouth): characteristic cooling effect in the mouth of peppermint; cooling effect ([4]; Example 25, water soluble adhesive on label, 0.025%, tongue): a pleasant cooling sensation on the tongue

**Q.** Which cooling effect ([2]; Example 13, talcum powder, 3.0%) does the source give for `CCCNC(=O)C1CC(C)CCC1C(C)C` (centres unmarked) [H, --C3 H7 (n), N-n-propyl-p-menthane-3-carboxamide] here?
**A.** freshening and cooling effect

**Q.** And the “Threshold” value [3]?
**A.** 0.8 µg

**Q.** And the cooling effect ([4]; Example 10, mouthwash concentrate, 0.1%, diluted with approximately 10 times its own volume of water)?
**A.** a strong and long lasting cooling effect is obtained in the mouth

**Q.** For `CC1CCC(C(C)C)C(C(=O)NC(C)(C)CO)C1` (centres unmarked) [H, --C(CH3)2 CH2 OH, N-(1,1-dimethyl-2-hydroxyethyl)-p-menthane-3-carboxamide], which “Threshold” value [3] is on record?
**A.** 0.4 µg

**Q.** What about the cooling effect ([4]; Example 14, soft drink, 0.02% in concentrate, diluted with water) of the same compound?
**A.** pleasantly cool after-effect

**Q.** What does the source list for `CC1CCC(C(C)C)C(C(=O)NCCO)C1` (centres unmarked) [H, --CH2 CH2 OH, N-(2-hydroxyethyl)-p-menthane carboxamide]?
**A.** Threshold (average minimum quantity to produce a noticeable cooling effect) [3]: 5 µg; cooling effect [6]: a cool fresh sensation is apparent on the eyeball and eyelids

**Q.** With `CC(O)CNC(=O)C1CC(C)CCC1C(C)C` (centres unmarked) [H, --CH2 CH(OH)CH3, N-(2-hydroxy-n-propyl)-p-menthane-3-carboxamide] as the compound, how does the cooling effect ([2]; Example 5, hair shampoo, 3.3%, scalp) read?
**A.** a fresh, cool sensation is noticed on the scalp

**Q.** What about the cooling effect ([2]; Example 7, solid cologne, 3.0%, forehead) of the same compound?
**A.** a very strong and long lasting cooling effect is obtained

**Q.** And the “Threshold” value [3]?
**A.** 5.5 µg

**Q.** What about the cooling effect ([4]; Example 15, gin, 0.08%, mouth) of the same compound?
**A.** a very strong cooling after-effect is obtained in the mouth

**Q.** With `CCC(CC)C(=O)N(C)C` [N,N-Dimethyl 2-ethylbutanamide] as the compound, how does the “cooling taste or refreshing effect” value [1] read?
**A.** refreshing effect

**Q.** With `CCCOC(=O)CCNC(=O)C1CC(C)CCC1C(C)C` (stereo not drawn) [N-p-menth-3-oyl-β-aminopropionic acid n-propyl ester] as the compound, how does the cooling effect ([4]; Example 19, ice cream, 0.05%) read?
**A.** a cooling effect is noticeable which persists after the cooling effect attributable to the temperature of the ice cream has disappeared
